Measurements published in patent US20260373193A1, “CARCINOGENESIS REDUCTION WITH PENTAAZA MACROCYLIC RING COMPLEX” (GALERA LABS, LLC, priority 2023, published 2026).
“Also recorded” adds a separate entry of the source.

Legend:
female BALB/c mice = test: long-term survival of irradiated and unirradiated mice treated or not with GC4419; assay type: in vivo, mouse (female BALB/c)
Procedure: All animal studies conducted used female BALB/c mice irradiated at 77-91 days of age and housed for a lifetime study to determine rates of carcinogenesis and survival. Animals were purchased from Charles River Laboratory, shipped to Brookhaven National Laboratory, and irradiated with the doses and ion species described below.
Animals were treated or not with GC4419. Those animals treated with GC4419 followed the following strategy. GC4419 was delivered at a dose of 24 mg/kg (mice were weighed prior to drug delivery) interperitoneally (i.p.) at roughly 45-60 minutes prior to radiation exposure. GC4419 was then provided i.p. for the next 6 days, and the animals were shipped to UT Southwestern (UTSW) Medical Center for temporary quarantine before returning to the animal facility. Upon return to UTSW the animals were treated with GC4419 i.p. weekly for another 11 weeks for a total of 12 weeks on treatment.
Radiation exposures were whole body. The galactic cosmic ray (GCR) simulation exposures used the beam line at the NASA Space Radiation Laboratory at Brookhaven National Lab (BNL) and the γ-ray exposures used a ^137Cs source at BNL. Subsequent to single dose irradiation, animals were returned to their cages.
Galactic cosmic rays (GCR) are heavy ion radiation characteristic of the deep space environment, and the GCR simulation (GCRsim) at BNL mimics the complex radiation environment in space. The GCRsim ions used are described in Table 1 below.
FIGS. 1A-1D represent survival in cohorts where animals were exposed to single dose whole-body γ-rays or not irradiated (Control), and treated or not with GC4419. FIGS. 1A-1B present preliminary results through approximately 400-600 days post-irradiation depending on the cohort. FIGS. 1C-1D present final results. As expected, the survival curves show in the animals not treated with GC4419, trends to survival decreasing with increasing γ-ray dose from unirradiated Control to 0.75 Gy (FIGS. 1B & 1D) to 1.5 Gy (FIGS. 1A & 1C).
FIGS. 2A-2D represent survival in cohorts where animals were exposed to single dose whole-body GCRsim radiation or not irradiated (Control), and treated or not with GC4419. FIGS. 2A-2B present results, including preliminary data for unirradiated animals treated with GC4419 (Control+GC4419) cohort through approximately 400 days post-irradiation. FIGS. 2C-2D present final results for all the presented cohorts. As with γ-rays, the survival curves show in the animals not treated with GC4419, trends to survival decreasing with increasing GCRsim dose from unirradiated control to 0.4 Gy to 0.75 Gy. […] This may reflect that GCRsim is a combination of various radiations of varying carcinogenic potential curves.
FIGS. 3A-3C represent survival in cohorts where unirradiated animals (Control) were treated or not with GC4419. FIG. 3A presents results through approximately 400 days post-irradiation with the range of the y-axis covering 95-100% survival. FIG. 3B-3C present final results with the ranges of the y-axis covering 0-100% and 70-100% survival.

[1] = test system: kidney damage from cisplatin; settings: cisplatin therapy for cancer; cited from earlier work
[2] = test system: Non-Small Cell Lung Carcinoma Cell Lines; settings: NSCLC cell lines; with cisplatin or cisplatin plus radiation; cited from earlier work
[3] = test system: acute and sub-chronic radiation damage; platinum therapy kidney damage; settings: mucositis, pulmonary pneumonitis and fibrosis, liver damage; cited from earlier work

## [Cl][Mn][Cl].c1cc2nc(c1)CN[C@H]1CCCC[C@@H]1NCCN[C@H]1CCCC[C@@H]1NC2 [GC4419]
Female BALB/c mice; GCRsim 0.4 Gy, 24 mg/kg i.p., final results
  survival vs irradiated untreated: neither increases nor decreases survival
Female BALB/c mice; GCRsim 0.75 Gy, 24 mg/kg i.p., final results, p<0.05
  survival vs irradiated untreated: statistically significantly increased survival
Female BALB/c mice; unirradiated (Control), 24 mg/kg i.p., final results, p<0.01 (FIGS. 3A-3C), 24 mg/kg
  survival vs unirradiated untreated: statistically significantly increased survival; also recorded: appears to increase survival in unirradiated animals
Female BALB/c mice; variety of radiation types and doses
  survival, overall: appears to have an effect on survival in animals exposed to a variety of radiation types and doses
Female BALB/c mice; γ-ray 0.75 Gy, 24 mg/kg i.p., final results
  survival vs unirradiated animals not treated with GC4419: equivalent survival to unirradiated animals not treated with GC4419
Female BALB/c mice; γ-ray 0.75 Gy, 24 mg/kg i.p., final results, p<0.01 (FIG. 1D)
  survival vs irradiated untreated: statistically significantly increased survival
Female BALB/c mice; γ-ray 1.5 Gy, 24 mg/kg i.p., final results, p<0.05 (FIG. 1C)
  survival vs irradiated untreated: statistically significantly increased survival
[1]
  kidney damage from cisplatin: reduce kidney damage from cisplatin therapy
[2]
  response to cisplatin and cisplatin plus radiation: Enhances the Response of Non-Small Cell Lung Carcinoma Cell Lines to Cisplatin and Cisplatin Plus Radiation
[3]
  overt acute and sub-chronic radiation damage; platinum therapy kidney damage: reduce overt acute and sub-chronic radiation damage
